This is an account of results in publication PMC10322725, “Assimilatory sulfate reduction in the marine methanogen Methanothermococcus thermolithotrophicus” (Nature Microbiology, 2023).

For assay [1], the target named is T1, MtPAPP (Methanothermococcus thermolithotrophicus, UniProt A0AA82WPC3).
T1 construct: recombinant in E. coli, codon-optimized gene in pET-28a(+) NdeI/BamHI, HisTrap, tag cleaved if necessary; DHH domain 1-180, linker 181-210, DHHA1 211-315
T1 sequence (A0AA82WPC3 1-315): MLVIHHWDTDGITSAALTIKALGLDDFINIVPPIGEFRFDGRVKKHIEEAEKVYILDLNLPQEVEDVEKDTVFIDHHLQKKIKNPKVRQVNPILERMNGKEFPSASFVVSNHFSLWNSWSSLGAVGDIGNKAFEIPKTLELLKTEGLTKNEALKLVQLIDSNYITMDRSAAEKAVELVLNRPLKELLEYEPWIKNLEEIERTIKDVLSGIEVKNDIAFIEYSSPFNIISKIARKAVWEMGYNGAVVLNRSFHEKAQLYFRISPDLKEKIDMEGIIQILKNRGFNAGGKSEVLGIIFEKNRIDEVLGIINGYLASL
In words: X-ray crystallography, […] Å. It is filed as binding. Particulars: co-crystallized with 2 mM PAP and MnCl2; partially occupied Mn2+ in active site.

Assay [2] deals with T2, MtPAPSR (Methanothermococcus thermolithotrophicus, UniProt A0AA82WPC4).
T2 construct: alpha and beta co-expressed in E. coli from pET-28a(+) NcoI/BamHI, C-terminal His-tag on alpha, anaerobic purification; alpha2beta2 heterotetramer; with Adenylylsulfate reductase subunit beta (PAPS reductase beta subunit)
In words: coupled assay, oxidation of reduced methyl viologen at […] nm. It is filed as biochemical. Particulars: PAPS generated in situ by MtATPS and MtAPSK, PAP removed by MtPAPP; HEPES pH 7.0, Mn2+, Mg2+, 45 °C, anaerobic.

In the next assay the target is T3, MtATPS (Methanothermococcus thermolithotrophicus, UniProt A0AA82WPC1).
T3 construct: gene sat; recombinant in E. coli, codon-optimized gene in pET-28a(+) NdeI/BamHI, HisTrap, tag cleaved if necessary; homodimer; domains 1-156, 164-314, 320-382
T3 sequence (A0AA82WPC1 4-385): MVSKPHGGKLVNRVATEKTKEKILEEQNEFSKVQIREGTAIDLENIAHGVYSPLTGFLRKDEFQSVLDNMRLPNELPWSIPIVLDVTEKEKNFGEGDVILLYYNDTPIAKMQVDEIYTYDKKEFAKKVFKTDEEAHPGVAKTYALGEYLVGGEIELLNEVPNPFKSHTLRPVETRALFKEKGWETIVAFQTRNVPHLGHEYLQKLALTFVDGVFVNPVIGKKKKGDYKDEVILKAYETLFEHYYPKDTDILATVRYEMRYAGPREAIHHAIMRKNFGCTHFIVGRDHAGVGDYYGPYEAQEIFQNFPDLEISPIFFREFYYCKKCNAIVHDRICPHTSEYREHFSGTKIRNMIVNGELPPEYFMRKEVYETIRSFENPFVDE
In words: coupled NADH oxidation assay with MtAPSK, pyrophosphatase, pyruvate kinase/lactate dehydrogenase. The settings on record: 2.5 mM Na2SO4, 2 mM ATP, Mg2+, pH 7.0, 35 °C; pyrophosphatase rate-limiting. It is filed as biochemical.

The target in assay [3] is ATP sulfurylase from Methanothermococcus thermolithotrophicus (MtATPS) (Methanothermococcus thermolithotrophicus). In words: SEC; size exclusion chromatography of purified MtATPS; conditions in the supplement.
Assay [4] has as its target T2, MtPAPSR. In words: X-ray crystallography, […] Å. It is filed as binding. The settings on record: bound in alpha subunit; crystal for phasing co-crystallized with 0.5 mM FAD.
The target of a further assay is T4, MtAPSK (Methanothermococcus thermolithotrophicus, UniProt A0AA82WPC2).
T4 construct: gene cysC; recombinant in E. coli, codon-optimized gene in pET-28a(+) NdeI/BamHI, HisTrap, tag cleaved if necessary; homodimer
In words: coupled NADH oxidation assay with MtATPS, pyrophosphatase, pyruvate kinase/lactate dehydrogenase. It is filed as biochemical. The settings on record: APS generated in situ by MtATPS; 2 mM ATP, Mg2+, pH 7.0, 35 °C.

Assay [5] deals with T1, MtPAPP. In words: malachite green phosphate assay. It is filed as biochemical. Particulars: 40 µM PAP, 50 µM MnCl2, Tris/HCl pH 7.64, 40 °C.
Assay [6] concerns the target APS kinase from Methanothermococcus thermolithotrophicus (MtAPSK) (Methanothermococcus thermolithotrophicus). In words: crystal structure; MtAPSK co-crystallized with 2 mM MgCl2, apo state with bound phosphate, sitting drop, 18 °C, aerobic.

T2 sequence (A0AA82WPC4 entry or part of it): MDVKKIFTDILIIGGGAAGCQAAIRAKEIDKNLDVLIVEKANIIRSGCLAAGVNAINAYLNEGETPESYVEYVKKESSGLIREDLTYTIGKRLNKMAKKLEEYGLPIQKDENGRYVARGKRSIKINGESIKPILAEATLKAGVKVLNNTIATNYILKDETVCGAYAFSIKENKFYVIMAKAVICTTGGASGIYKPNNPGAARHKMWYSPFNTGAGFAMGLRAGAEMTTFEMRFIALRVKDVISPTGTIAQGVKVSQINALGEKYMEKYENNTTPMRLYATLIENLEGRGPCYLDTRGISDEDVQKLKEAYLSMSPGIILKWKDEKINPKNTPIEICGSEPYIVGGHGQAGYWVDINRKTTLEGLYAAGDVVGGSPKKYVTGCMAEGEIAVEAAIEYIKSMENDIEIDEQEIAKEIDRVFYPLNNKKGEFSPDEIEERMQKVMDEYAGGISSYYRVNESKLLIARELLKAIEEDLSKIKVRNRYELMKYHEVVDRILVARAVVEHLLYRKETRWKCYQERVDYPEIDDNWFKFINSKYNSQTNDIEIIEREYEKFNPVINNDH
T2 sequence (A0AA82WPC5 entry or part of it, further chain): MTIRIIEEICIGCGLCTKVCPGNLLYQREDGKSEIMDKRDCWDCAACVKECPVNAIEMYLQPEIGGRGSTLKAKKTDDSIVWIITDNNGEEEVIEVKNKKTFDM
T4 sequence (A0AA82WPC2 entry or part of it): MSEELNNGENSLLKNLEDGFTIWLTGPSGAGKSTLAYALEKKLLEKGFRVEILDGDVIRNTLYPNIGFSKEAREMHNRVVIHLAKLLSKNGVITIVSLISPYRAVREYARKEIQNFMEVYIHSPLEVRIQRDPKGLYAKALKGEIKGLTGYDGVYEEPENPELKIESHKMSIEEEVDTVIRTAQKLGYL

As to `Nc1ncnc2c1ncn2[C@@H]1O[C@H](COP(=O)(O)O)[C@@H](O)[C@H]1O` [AMP], the “X-ray crystallography, 3.1 Å” value on MtPAPP [1] was “contained the product AMP and an ion in its active site”.
`Nc1ncnc2c1ncn2[C@@H]1O[C@H](COP(=O)(O)OS(=O)(=O)O)[C@@H](OP(=O)(O)O)[C@H]1O` [PAPS]: at MtPAPSR [2], the “coupled assay, oxidation of reduced methyl viologen at 600 nm” value was “MtATPS, a pyrophosphatase and the MtAPSK were used to generate PAPS”.
Regarding `O=S(=O)(O)O` [SO42−], the “coupled NADH oxidation assay with MtAPSK, pyrophosphatase, pyruvate kinase/lacta” value at MtATPS is “activity of the recombinantly expressed MtATPS and MtAPSK was tested via a coupled assay”.
For the compound “ATP sulfurylase from Methanothermococcus thermolithotrophicus (MtATPS) (enzyme)”, in assay [3], the stoichiometry N turned out to be 2.
With `Cc1cc2nc3c(=O)[nH]c(=O)nc-3n(C[C@H](O)[C@H](O)[C@H](O)COP(=O)(O)OP(=O)(O)OC[C@H]3O[C@@H](n4cnc5c(N)ncnc54)[C@H](O)[C@@H]3O)c2cc1C` [FAD], the “X-ray crystallography, 1.45 Å” value at MtPAPSR [4] was “the α subunit, containing the flavin adenine dinucleotide (FAD)”.
Regarding `Nc1ncnc2c1ncn2[C@@H]1O[C@H](COP(=O)(O)OP(=O)(O)OP(=O)(O)O)[C@@H](O)[C@H]1O` [ATP], the “coupled NADH oxidation assay with MtATPS, pyrophosphatase, pyruvate kinase/lacta” value on MtAPSK was “determined by the production of ADP which was coupled to NADH oxidation”. For the same compound, the “coupled NADH oxidation assay with MtAPSK, pyrophosphatase, pyruvate kinase/lacta” value on MtATPS was “activity of the recombinantly expressed MtATPS and MtAPSK was tested via a coupled assay”.
Consider `Nc1ncnc2c1ncn2[C@@H]1O[C@H](COP(=O)(O)O)[C@@H](OP(=O)(O)O)[C@H]1O` [PAP], for which the “malachite green phosphate assay” value at MtPAPP [5] is “produced inorganic phosphate (Pi) from PAP at fast rates”.
As for “APS kinase from Methanothermococcus thermolithotrophicus (MtAPSK) (enzyme)”, the stoichiometry N in assay [6] stood at 2.
